Values of other authors as cited in patent US5840893A, “Compounds for treating infectious diseases” (priority 1996, dated 1998).

System: importation of HIV-1 into the nucleus
Settings: 0.1M peptide in medium; aphidicolin-arrested CD4+ MT4 cells; cited from earlier work

SV40 T-antigen NLS: the peptide having the sequence of the SV40 T-antigen NLS (PKKKRKV)
block of HIV-1 importation into the nucleus: blocked the importation of HIV-1 into the nucleus
